Test results from paper PMC5482804, “YvcK, a protein required for cell wall integrity and optimal carbon source utilization, binds uridine diphosphate-sugars” (Scientific Reports, 2017).

How the values were obtained:
YvcK [1] = molecular target: T1, YvcK (Bacillus subtilis, UniProt O06974); test: thermal shift assay (SYPRO Orange) with apparent KD; limited trypsin proteolysis; type: binding
T1 construct: gene mgfK; His6-tagged YvcK

YvcK [2] = molecular target: T1, YvcK; test: thermal shift assay (SYPRO Orange) with apparent KD; type: binding

T1 sequence (O06974 whole entry): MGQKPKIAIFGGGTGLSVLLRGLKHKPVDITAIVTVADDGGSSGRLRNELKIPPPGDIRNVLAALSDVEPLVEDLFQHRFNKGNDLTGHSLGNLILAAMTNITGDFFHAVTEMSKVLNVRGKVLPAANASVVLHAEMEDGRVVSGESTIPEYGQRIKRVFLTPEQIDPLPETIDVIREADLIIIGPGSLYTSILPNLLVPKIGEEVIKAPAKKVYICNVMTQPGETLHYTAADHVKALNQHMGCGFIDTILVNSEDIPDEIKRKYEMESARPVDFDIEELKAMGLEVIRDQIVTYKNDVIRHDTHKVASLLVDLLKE

SMILES: CC(=O)N[C@H]1[C@@H](OP(=O)(O)OP(=O)(O)OC[C@H]2O[C@@H](n3ccc(=O)[nH]c3=O)[C@H](O)[C@@H]2O)O[C@H](CO)[C@@H](O)[C@@H]1O [UDP-GlcNAc]
- Kd (YvcK [1]): 0.41 ± 0.24 mM

SMILES: O=c1ccn([C@@H]2O[C@H](COP(=O)(O)OP(=O)(O)O)[C@@H](O)[C@H]2O)c(=O)[nH]1 [UDP]
- Kd (YvcK [2]): 6.21 ± 0.62 mM
